Source: paper PMC11945486, “TAS1R2/TAS1R3 Single-Nucleotide Polymorphisms Affect Sweet Taste Receptor Activation by Sweeteners: The SWEET Project” (Nutrients, 2025)
Like-named read-outs stand apart in the source and are kept apart here. No end group written: not given here.

Molecular target: T1, human TAS1R2-WT/TAS1R3-WT (Homo sapiens, UniProt Q7RTX0+Q8TE23)
T1 construct: expressed in transfected cells; host or cells: HEK293T-Gα16gust44
T1 sequence (Q8TE23 20-839): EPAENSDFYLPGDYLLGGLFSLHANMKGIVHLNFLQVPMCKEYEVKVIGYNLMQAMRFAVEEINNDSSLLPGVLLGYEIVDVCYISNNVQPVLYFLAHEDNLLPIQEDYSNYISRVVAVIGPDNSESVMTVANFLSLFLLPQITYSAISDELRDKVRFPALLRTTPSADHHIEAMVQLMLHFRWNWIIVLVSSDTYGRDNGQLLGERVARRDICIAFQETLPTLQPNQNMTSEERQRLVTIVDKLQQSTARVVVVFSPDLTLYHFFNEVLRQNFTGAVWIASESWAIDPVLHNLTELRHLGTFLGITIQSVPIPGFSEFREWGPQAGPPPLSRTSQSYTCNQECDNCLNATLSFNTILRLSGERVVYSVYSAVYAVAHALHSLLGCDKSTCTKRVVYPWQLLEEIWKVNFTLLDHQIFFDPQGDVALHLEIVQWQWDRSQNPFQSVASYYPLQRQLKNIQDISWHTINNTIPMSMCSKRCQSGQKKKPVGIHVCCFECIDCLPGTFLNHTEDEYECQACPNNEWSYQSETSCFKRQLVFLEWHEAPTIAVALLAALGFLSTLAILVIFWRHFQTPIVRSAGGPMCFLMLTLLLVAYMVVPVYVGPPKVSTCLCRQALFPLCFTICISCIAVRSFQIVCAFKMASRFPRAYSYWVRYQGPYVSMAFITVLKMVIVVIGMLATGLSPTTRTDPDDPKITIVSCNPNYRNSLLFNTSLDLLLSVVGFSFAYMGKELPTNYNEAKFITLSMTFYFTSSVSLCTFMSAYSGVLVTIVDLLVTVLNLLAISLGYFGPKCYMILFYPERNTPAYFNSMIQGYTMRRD
T1 sequence (Q7RTX0 21-852): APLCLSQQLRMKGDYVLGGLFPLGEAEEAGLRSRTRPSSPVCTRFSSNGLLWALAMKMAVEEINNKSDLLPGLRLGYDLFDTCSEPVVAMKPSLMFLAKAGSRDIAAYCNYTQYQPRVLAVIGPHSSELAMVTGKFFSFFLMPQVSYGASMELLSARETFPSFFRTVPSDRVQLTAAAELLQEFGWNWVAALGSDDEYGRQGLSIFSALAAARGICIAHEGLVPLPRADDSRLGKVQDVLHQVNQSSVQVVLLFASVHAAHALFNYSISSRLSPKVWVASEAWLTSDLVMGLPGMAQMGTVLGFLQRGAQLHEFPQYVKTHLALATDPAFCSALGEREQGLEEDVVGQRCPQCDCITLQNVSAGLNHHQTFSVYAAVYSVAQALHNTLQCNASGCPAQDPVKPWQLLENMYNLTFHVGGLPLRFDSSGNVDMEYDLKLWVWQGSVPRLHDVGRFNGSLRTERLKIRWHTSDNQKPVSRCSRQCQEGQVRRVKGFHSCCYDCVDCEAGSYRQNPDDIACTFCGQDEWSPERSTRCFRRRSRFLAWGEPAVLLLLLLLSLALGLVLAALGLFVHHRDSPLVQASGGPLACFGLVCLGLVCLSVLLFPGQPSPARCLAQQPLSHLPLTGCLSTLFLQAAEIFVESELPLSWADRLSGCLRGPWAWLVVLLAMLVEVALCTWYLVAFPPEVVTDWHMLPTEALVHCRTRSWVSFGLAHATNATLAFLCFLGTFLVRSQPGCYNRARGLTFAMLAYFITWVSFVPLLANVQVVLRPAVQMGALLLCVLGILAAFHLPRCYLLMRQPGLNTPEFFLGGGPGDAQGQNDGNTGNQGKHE
Assay: Calcium mobilisation assay, HEK293T-Gα16gust44 cells, human sweet taste receptor WT
Format: cell-based
Conditions: for Max ΔF/F0: maximal signal amplitude
Description: The coding sequences for TAS1R2 and TAS1R3 were commercially synthesised, and the human codon was optimised for expression in human cells. The coding sequences of human TAS1R2 and TAS1R3 were subcloned and inserted into the mammalian expression vectors pcDNA6/myc-HisA and pcDNA4/myc-HisA (Invitrogen; Thermo Fisher Scientific; Illkirch, France) between the EcoRI and NotI restriction sites, generating the plasmids pcDNA6-TAS1R2 and pcDNA4-TAS1R3, respectively. To increase protein expression in mammalian cells, an upstream start codon was used, which was a sequence called MAX, corresponding to the QBI SP163 element also described in pcDNA4-HisMax (Invitrogen; Thermo Fisher Scientific; Illkirch, France). To measure the expression level of the receptor by immunohistochemistry, we used the FLAG sequence ([…]) in the C-terminal position, which encodes the FLAG tag epitope. SNP variants of TAS1R2 and TAS1R3 were constructed based on […], respectively, using site-directed mutagenesis (Genewiz; Leipzig, Germany).
The HEK293T cells were kindly provided by Jay P. Slack (Givaudan Flavors Corporation; Cincinnati, OH, USA). HEK293T cells stably transfected with Gα16gust44 [43, 67] were seeded in poly-D-lysine-coated clear-bottom black 96-well plates (0.35 × 10^5 cells/well) in high-glucose DMEM supplemented with 2 mM GlutaMAX, 10% dialysed foetal bovine serum with penicillin/streptomycin and G418 (400 μg/mL) at 37 °C and 6.3% CO2 in a humidified atmosphere as previously reported. […] As a negative control, HEK293T cells were mock-transfected with the empty expression vector. After a further 24 h of incubation, the HEK293T cells were washed with C1 buffer (130 mM NaCl, 5 mM KCl, 10 mM HEPES pH 7.4 and 2 mM CaCl2). The 96-well plates containing the cells were then stimulated with sweet-tasting compounds. […] Different concentration ranges were tested depending on the sweet compound injected. The Ca^2+ changes were expressed as fractional changes in fluorescent light intensity: ΔF/F = (F − F0)/F0, where F was the fluorescent light intensity at each point, and F0 was the value of emitted fluorescent light prior to stimulus application. To calculate dose–response relationships, the changes in fluorescence upon stimulus application were averaged, mock-subtracted and baseline-corrected. The dose–response data obtained were adjusted using a 4-parameter logistic equation. The half-maximal effective concentrations (EC50 values) and maximal signal amplitudes were calculated using SigmaPlot software (version 15.0) (Systat Software; San Jose, CA, USA).
For in vitro calcium mobilisation assay performed on hTAS1R2-SNPs, hTAS1R3-SNPs and mTAS1R3-I60T, 6 to 7 concentrations were tested for each sweet compound, plus buffer alone. All concentration–receptor combinations were measured in duplicate, and each experiment was repeated at least 4 times (8 wells/concentration). Results were expressed for each concentration as ΔF/F mean ± SEM and represented as dose–response curves.

[1] = TAS1R2-WT + TAS1R3-WT, read-out: EC50
[2] = TAS1R2-WT/TAS1R3-WT, read-out: EC50

In the case of `OC[C@H]1O[C@H](O[C@]2(CCl)O[C@H](CCl)[C@@H](O)[C@@H]2O)[C@H](O)[C@@H](O)[C@H]1Cl` [Sucralose], the “R1 = Variant EC50/WT EC50” value (TAS1R2-WT + TAS1R3-WT) is reported as 1.0, the “Max ΔF/F0” value (TAS1R2-WT + TAS1R3-WT) is reported as 0.59 ± 0.03 and the EC50 [1] is reported as 90 ± 11 µM. The “R1 = Variant EC50/WT EC50” value (TAS1R2-WT/TAS1R3-WT) was 1.0, the “Max ΔF/F0” value (TAS1R2-WT/TAS1R3-WT) was 0.65 ± 0.01 and the EC50 [2] was 109 ± 4 µM.

For `O=S(=O)(O)NC1CCCCC1` [Cyclamate, cyclamate], the EC50 [1] was 1890 ± 46 µM and the EC50 [2] was 1590 ± 28 µM.

With `C=C(C)[C@@H]1CC=C(/C=N/O)CC1` [Perillartine, perillartine] the “R1 = Variant EC50/WT EC50” value (TAS1R2-WT + TAS1R3-WT) was 1.0, the “Max ΔF/F0” value (TAS1R2-WT + TAS1R3-WT) was 1.47 ± 0.07 and the EC50 [1] was 17.5 ± 2.2 µM. The “R1 = Variant EC50/WT EC50” value (TAS1R2-WT/TAS1R3-WT) was 1.0, the “Max ΔF/F0” value (TAS1R2-WT/TAS1R3-WT) was 1.51 ± 0.22 and the EC50 [2] was 13.8 ± 6.3 µM.

`C=C1C[C@@]23CC[C@H]4[C@@](C)(CCC[C@@]4(C)C(=O)O[C@@H]4O[C@H](CO)[C@@H](O)[C@H](O[C@@H]5O[C@H](CO)[C@@H](O)[C@H](O)[C@H]5O)[C@H]4O[C@@H]4O[C@H](CO)[C@@H](O)[C@H](O)[C@H]4O)[C@@H]2CC[C@]1(O[C@@H]1O[C@H](CO)[C@@H](O)[C@H](O[C@@H]2O[C@H](CO)[C@@H](O)[C@H](O)[C@H]2O)[C@H]1O[C@@H]1O[C@H](CO)[C@@H](O)[C@H](O)[C@H]1O)C3` [Rebaudioside M, rebaudioside M] was tested, and the “R1 = Variant EC50/WT EC50” value (TAS1R2-WT + TAS1R3-WT) was 1.0, the “Max ΔF/F0” value (TAS1R2-WT + TAS1R3-WT) was 1.12 ± 0.01 and the EC50 [1] was 16.9 ± 0.5 µM. For the same molecule, the “R1 = Variant EC50/WT EC50” value (TAS1R2-WT/TAS1R3-WT) was 1.0, the “Max ΔF/F0” value (TAS1R2-WT/TAS1R3-WT) was 0.69 ± 0.02 and the EC50 [2] was 40.4 ± 2.9 µM.

With `COc1ccc(CCC(=O)c2c(O)cc(O[C@@H]3O[C@H](CO)[C@@H](O)[C@H](O)[C@H]3O[C@@H]3O[C@@H](C)[C@H](O)[C@@H](O)[C@H]3O)cc2O)cc1O` [NHDC, neohesperidin dihydrochalcone] the “R1 = Variant EC50/WT EC50” value (TAS1R2-WT + TAS1R3-WT) was 1.0, the “Max ΔF/F0” value (TAS1R2-WT + TAS1R3-WT) was 0.71 ± 0.02 and the EC50 [1] was 76.7 ± 4.4 µM. The “R1 = Variant EC50/WT EC50” value (TAS1R2-WT/TAS1R3-WT) was 1.0, the “Max ΔF/F0” value (TAS1R2-WT/TAS1R3-WT) was 1.13 ± 0.01 and the EC50 [2] was 50.3 ± 11 µM.

In the case of thaumatin, the “R1 = Variant EC50/WT EC50” value (TAS1R2-WT + TAS1R3-WT) is reported as 1.0, the “Max ΔF/F0” value (TAS1R2-WT + TAS1R3-WT) is reported as 0.72 ± 0.01 and the “R1 = Variant EC50/WT EC50” value (TAS1R2-WT/TAS1R3-WT) is reported as 1.0. The “Max ΔF/F0” value (TAS1R2-WT/TAS1R3-WT) was 0.57 ± 0.02.

In the case of `CC1=CC(=O)NS(=O)(=O)O1` [Acesulfame K, acesulfame K], the “R1 = Variant EC50/WT EC50” value (TAS1R2-WT + TAS1R3-WT) is reported as 1.0, the “Max ΔF/F0” value (TAS1R2-WT + TAS1R3-WT) is reported as 0.31 ± 0.01 and the EC50 [1] is reported as 705 ± 7 µM. The “R1 = Variant EC50/WT EC50” value (TAS1R2-WT/TAS1R3-WT) was 1.0, the “Max ΔF/F0” value (TAS1R2-WT/TAS1R3-WT) was 0.28 ± 0.01 and the EC50 [2] was 622 ± 45 µM.

With “brazzein (QDKCKKVYENYPVSKCQLANQCNYDCKLDKHARSGECFYDEKRNLQCICDYCEY; ends and bridges not checked; cysteine pairing not given here; UniProt P56552 1-54, looked up) [sweet-tasting protein obtained by recombinant production using the yeast Pichia pastoris]” the “R1 = Variant EC50/WT EC50” value (TAS1R2-WT + TAS1R3-WT) was 1.0, the “Max ΔF/F0” value (TAS1R2-WT + TAS1R3-WT) was 1.17 ± 0.04 and the “R1 = Variant EC50/WT EC50” value (TAS1R2-WT/TAS1R3-WT) was 1.0. For the same molecule, the EC50 (TAS1R2-WT/TAS1R3-WT, brazzein) was 112.8 ± 11.2 µg/mL and the “Max ΔF/F0” value (TAS1R2-WT/TAS1R3-WT) was 0.88 ± 0.03.

With `C[C@H](CC[C@@H](O[C@@H]1O[C@H](CO[C@@H]2O[C@H](CO)[C@@H](O)[C@H](O)[C@H]2O)[C@@H](O)[C@H](O)[C@H]1O[C@@H]1O[C@H](CO)[C@@H](O)[C@H](O)[C@H]1O)C(C)(C)O)[C@H]1CC[C@@]2(C)[C@@H]3CC=C4[C@@H](CC[C@H](O[C@@H]5O[C@H](CO[C@@H]6O[C@H](CO)[C@@H](O)[C@H](O)[C@H]6O)[C@@H](O)[C@H](O)[C@H]5O)C4(C)C)[C@]3(C)[C@H](O)C[C@]12C` [Mogroside V, mogroside V] the “R1 = Variant EC50/WT EC50” value (TAS1R2-WT + TAS1R3-WT) was 1.0, the “Max ΔF/F0” value (TAS1R2-WT + TAS1R3-WT) was 1.28 ± 0.03 and the EC50 [1] was 17.3 ± 1.2 µM. For the same molecule, the “R1 = Variant EC50/WT EC50” value (TAS1R2-WT/TAS1R3-WT) was 1.0, the “Max ΔF/F0” value (TAS1R2-WT/TAS1R3-WT) was 0.93 ± 0.01 and the EC50 [2] was 31.3 ± 0.8 µM.

For `COC(=O)[C@H](Cc1ccccc1)NC(=O)[C@H](CC(=O)O)NCCC(C)(C)C` [Neotame], the “R1 = Variant EC50/WT EC50” value (TAS1R2-WT + TAS1R3-WT) was 1.0, the “Max ΔF/F0” value (TAS1R2-WT + TAS1R3-WT) was 0.56 ± 0.03 and the EC50 [1] was 0.84 ± 0.13 µM. For the same molecule, the “R1 = Variant EC50/WT EC50” value (TAS1R2-WT/TAS1R3-WT) was 1.0, the “Max ΔF/F0” value (TAS1R2-WT/TAS1R3-WT) was 0.65 ± 0.02 and the EC50 [2] was 1.22 ± 0.11 µM.

B1: thaumatin (protein)
chain: ATFEIVNRCSYTVWAAASKGDAALDAGGRQLNSGESWTINVEPGTKGGKIWARTDCYFDDSGSGICKTGDCGGLLRCKRFGRPPTTLAEFSLNQYGKDYIDISNIKGFNVPMDFSPTTRGCRGVRCAADIVGQCPAKLKAPGGGCNDACTVFQTSEYCCTTGKCGPTEYSRFFKRLCPDAFSYVLDKPTTVTCPGSSNYRVTFCPTA
modifications: Eight disulfides
notes: sweet-tasting plant protein, E957
Work on B1 yielded an EC50 [1] of 7.6 ± 0.3 µM and an EC50 [2] of 10.4 ± 0.6 µM.
